Measurements from publication PMC9181938, “Fluorinated Analogues of Lepidilines A and C: Synthesis and Screening of Their Anticancer and Antiviral Activity” (Molecules, 2022).
Read-outs that look alike come from different tables or passages of the source.

Legend:
[1] = test system: Human herpesvirus 5 (HCMV); test: Antiviral activity assay (0.1–1000 µM), IC50, plaque reduction; assay type: cell-based; settings: Human betaherpesvirus 5, 20 PFU/well
Procedure: (§1) Antiviral properties of compounds 1e–1g, 1e[PF6], 8a–8d, and 9a were assessed against five viruses: Human herpesvirus 1 (HSV-1, VR-539), Human parainfluenza virus type 3 (HPIV-3, VR-93), Human adenovirus 5 (AdV5, VR-5), Human herpesvirus 5 (HCMV, VR-977), and Encephalomyocarditis virus (EMCV, VR-1479). Viruses were purchased from the American Type Culture Collection (ATCC, Manassas, VA, USA).
(§2) All tested compounds were dissolved in DMSO (dimethyl sulfoxide, Sigma-Aldrich, Darmstadt, Germany) and then suspended in Minimum Essential Medium (MEM; Sigma-Aldrich, Darmstadt, Germany) supplemented with 2% heat-inactivated fetal bovine serum (FBS; Sigma-Aldrich, Darmstadt, Germany), 2 mM L-glutamine (Sigma-Aldrich, Darmstadt, Germany), and 100 units/mL penicillin G with […] streptomycin (Sigma-Aldrich, Darmstadt, Germany).
(§3) Investigated cells were propagated in Minimum Essential Medium (MEM; Sigma-Aldrich, Darmstadt, Germany) supplemented with 10% heat-inactivated fetal bovine serum (FBS; Sigma-Aldrich, Darmstadt, Germany) and 100 units/mL penicillin G with […] streptomycin (Sigma-Aldrich, Darmstadt, Germany). After reaching 80–90% confluency, cells were harvested with trypsin (Life Technologies, Warsaw, Poland) and seeded into 96-well microplates at 2 × 10^5 cells/mL after overnight incubation of cells at 37 °C in a humidified atmosphere containing 5% CO2.
(§4) The culture medium was removed from confluent cells grown in 96-well microplates, and the cells were inoculated with virus solutions in MEM supplemented with 2% FBS and antibiotics (HSV-1 MOI 0.005, 1000 virions/mL; HPIV-3 MOI 0.01, 2000 virions/mL; AdV5 MOI 0.005, 1000 virions/mL; EMCV 0.005, 1000 virions/mL; HCMV 20 PFU/well (plaque-forming units per well). After a 1-h (HSV-1, HPIV-3, AdV5, and EMCV) or 2-h adsorption period (HCMV), residual viral particles were removed, and infected cells were further incubated with MEM supplemented with 2% FBS containing compound concentrations in the range from 0.1 to 1000 µM [38]. All experiments were carried out in triplicate. The cell monolayers were incubated with the investigated compounds at 37 °C in a humidified atmosphere containing 5% CO2 until a cytopathic effect (CPE) was visible. Viral infection was evaluated by the MTT assay (as described previously) or plaque reduction assay. HCMV plaques were counted under an inverted microscope, Olympus IX73 (Olympus, Tokyo, Japan). Antiviral activity was expressed as the concentration required to reduce the number of viral plaques to 50% of the control (virus-infected but untreated).

[2] = Cytotoxicity MTT assay (0.1–1000 µM), CC50; assay type: cell-based, Human; settings: human, MRC-5 cells, MRC-5, MTT, read-out: CC50 Normal Cell Lines MRC-5
[3] = Cytotoxicity MTT assay (0.1–1000 µM), CC50; assay type: cell-based, Human; settings: human, HeLa cells
[4] = Cytotoxicity MTT assay (0.1–1000 µM), CC50; assay type: cell-based, Human; settings: human, HepG2 cells, read-out: CC50 Cancer Cell Lines HepG2
[5] = Cytotoxicity MTT assay (0.1–1000 µM), CC50; assay type: cell-based, Macaca mulatta; settings: Macaca mulatta, LLC-MK2 cells, LLC-MK2, MTT, 48 h; read-out: CC50 Normal Cell Lines LLC-MK2
[6] = Cytotoxicity MTT assay (0.1–1000 µM), CC50; assay type: cell-based, Mus musculus; settings: Mus musculus, NCTC clone 929 cells, NCTC clone 929, MTT, 48 h; read-out: CC50 Normal Cell Lines NCTC Clone 929
[7] = test system: Human parainfluenza virus type 3 (HPIV-3); test: Antiviral activity assay (0.1–1000 µM), IC50; assay type: cell-based; settings: Human respirovirus 3, HPIV-3, MOI 0.01; read-out: IC50 HPIV-3
Procedure: as §1, §2, §3, §4

[8] = test system: Human herpesvirus 1 (HSV-1); test: Antiviral activity assay (0.1–1000 µM), IC50; assay type: cell-based; settings: Human alphaherpesvirus 1; HSV-1, MOI 0.005
Procedure: as §1, §2, §3, §4

[9] = test system: Human adenovirus 5 (AdV5); test: Antiviral activity assay (0.1–1000 µM), IC50; assay type: cell-based; settings: Human mastadenovirus C
Procedure: as §1, §2, §3, §4

[10] = test system: Encephalomyocarditis virus (EMCV); test: Antiviral activity assay (0.1–1000 µM), IC50; assay type: cell-based; settings: Cardiovirus A, MOI 0.005, read-out: IC50 EMCV
Procedure: as §1, §2, §3, §4

[11] = Cytotoxicity MTT assay (0.1–1000 µM), CC50; assay type: cell-based, Human; settings: human, A549 cells, read-out: CC50 Cancer Cell Lines A549
[12] = Cytotoxicity MTT assay (0.1–1000 µM), CC50; assay type: cell-based, Cercopithecus aethiops; settings: Cercopithecus aethiops, Vero cells, read-out: CC50 Normal Cell Lines Vero
LLC-MK2 cells = test: Cytotoxicity MTT assay (0.1–1000 µM), CC50; assay type: cell-based, Macaca mulatta; settings: LLC-MK2, MTT, 48 h; read-out: CC50 Normal Cell Lines LLC-MK2
[13] = Cytotoxicity screening at 10 µM (MTT); assay type: cell-based, Human; settings: human, MRC-5 cells, read-out: Cell line (viability %) MRC-5
[14] = Cytotoxicity screening at 10 µM (MTT); assay type: cell-based, Mus musculus; settings: Mus musculus, NCTC clone 929 cells, read-out: Cell line (viability %) NCTC clone 929
[15] = test system: Human herpesvirus 5 (HCMV); test: Antiviral screening at 10 µM, plaque reduction; assay type: cell-based; settings: Human betaherpesvirus 5, antiviral screening, HCMV-infected cells, read-out: Cell line (viability %) HCMV
Procedure: (§5) Antiviral properties of compounds 1a, 1c, 1a[PF6], 1c[PF6], 9b[PF6], 9c[PF6], 10a–10d, 2a, and 2b were assessed against five viruses: Human herpesvirus 1 (HSV-1, VR-539), Human parainfluenza virus type 3 (HPIV-3, VR-93), Human adenovirus 5 (AdV5, VR-5), Human herpesvirus 5 (HCMV, VR-977), and Encephalomyocarditis virus (EMCV, VR-1479). Viruses were purchased from the American Type Culture Collection (ATCC, Manassas, VA, USA).
as §2
(§6) Vero, LLC-MK2, NCTC clone 929, MRC-5, and HeLa cells were propagated in Minimum Essential Medium (MEM; Sigma-Aldrich, Darmstadt, Germany) supplemented with 10% heat-inactivated fetal bovine serum (FBS; Sigma-Aldrich, Darmstadt, Germany) and 100 units/mL penicillin G with […] streptomycin (Sigma-Aldrich, Darmstadt, Germany). Upon reaching 80–90% confluency, cells were harvested with 0.25% trypsin in 1 mM EDTA (Life Technologies, Warsaw, Poland) and seeded onto 96-well microplates at 2 × 10^5 cells/mL. After overnight incubation of cells at 37 °C in a humidified atmosphere containing 5% CO2, the culture medium was removed, and cells were inoculated with the respective virus solution in MEM supplemented with 2% FBS and antibiotics (HSV-1 MOI 0.005, 1000 virions/mL; HPIV-3 MOI 0.01, 2000 virions/mL; AdV5 MOI 0.005, 1000 virions/mL, EMCV MOI 0.005, 1000 virions/mL, HCMV 20 PFU (plaque forming units) per well). After a 1-h (HSV-1, HPIV-3, AdV5, and EMCV) or 2-h adsorption period (HCMV), the residual virus was removed, and the infected cells were further incubated with a 100 μL freshly prepared solution of tested compounds diluted with a maintenance medium supplemented with 2% FBS to obtain compound concentrations of 10 µM. The final concentration of DMSO in the medium was 0.1%. All experiments were carried out in triplicate. The cells monolayers were incubated with the compounds at 37 °C in a humidified atmosphere containing 5% CO2 until the typical cytopathic effect (CPE) was visible. Viral infection was evaluated by the MTT assay or plaque reduction assay (HCMV). After incubation with drugs, the cells were treated with 3-(4,5-dimethylthiazol-2-yl)-2,5-diphenyltetrazolium bromide dye solution (MTT, Sigma-Aldrich, Darmstadt, Germany) (25 μL, 5 mg/mL) for 2 h and lysed with solvent solution (100 μL) containing: DMF (Sigma-Aldrich, Darmstadt, Germany) (45 mL), SDS (Sigma-Aldrich, Darmstadt, Germany) (13.5 g), and distilled water (55 mL). After overnight incubation at 37 °C, the optical density at 550 nm and a reference wavelength of 670 nm were measured on a microplate spectrophotometer, Varioskan Lux (Thermo Fisher Scientific, Waltham, MA, USA). The number of HCMV plaques was counted under an inverted microscope Olympus IX73 (Olympus, Tokyo, Japan).

[16] = Cytotoxicity screening at 10 µM (MTT); assay type: cell-based, Macaca mulatta; settings: Macaca mulatta, LLC-MK2 cells, read-out: Cell line (viability %) LLC-MK2
[17] = Cytotoxicity screening at 10 µM (MTT); assay type: cell-based, Cercopithecus aethiops; settings: Cercopithecus aethiops, Vero cells, read-out: Cell line (viability %) Vero
[18] = Cytotoxicity screening at 10 µM (MTT); assay type: cell-based, Human; settings: human, HeLa cells, read-out: Cell line (viability %) HeLa
[19] = test system: Human parainfluenza virus type 3 (HPIV-3); test: Antiviral screening at 10 µM; assay type: cell-based; settings: Human respirovirus 3, antiviral screening, HPIV-3-infected cells, read-out: Cell line (viability %) HPIV-3
Procedure: as §5, §2, §6

[20] = test system: Human herpesvirus 1 (HSV-1); test: Antiviral screening at 10 µM; assay type: cell-based; settings: Human alphaherpesvirus 1, antiviral screening, HSV-1-infected cells, read-out: Cell line (viability %) HSV-1
Procedure: as §5, §2, §6

[21] = test system: Human adenovirus 5 (AdV5); test: Antiviral screening at 10 µM; assay type: cell-based; settings: Human mastadenovirus C, AdV5-infected cells, read-out: Cell line (viability %) AdV5
Procedure: as §5, §2, §6

[22] = test system: Encephalomyocarditis virus (EMCV); test: Antiviral screening at 10 µM; assay type: cell-based; settings: Cardiovirus A, EMCV-infected cells, read-out: Cell line (viability %) EMCV
Procedure: as §5, §2, §6

[23] = MTT, 48 h, read-out: CC50 Cancer Cell Lines HeLa
[24] = AdV5, MOI 0.005, read-out: IC50 AdV5

| SMILES | IC50 [1] [µM] | CC50 at 48 h [2] [µM] | CC50 at 48 h [3, 23] [µM] | CC50 at 48 h [4] [µM] | melting point [°C] | CC50 at 48 h [5] [µM] | CC50 at 48 h [6] [µM] | IC50 [7] [µM] | IC50 [8] [µM] | IC50 [9, 24] [M] | IC50 [10] [µM] | CC50 at 48 h [11] [µM] | CC50 at 48 h [12] [µM] | further results |
| --- | --- | --- | --- | --- | --- | --- | --- | --- | --- | --- | --- | --- | --- | --- |
| Cc1c(C)[n+](Cc2cccc(OC(F)(F)F)c2)cn1Cc1ccccc1.[Cl-] [Compound 1f, 1-Benzyl-4,5-dimethyl-3-[3-(trifluoromethoxy)benzyl]imidazolium chloride] | > 36.7 | 36.7 ± 2.31 | 0.039 ± 0.001 | 152 ± 2 | 108 to 110 | 59 ± 1 | 48.3 ± 2.89 | > 59 | > 38 | > 3.9e-08 | > 48.3 | 1.6 ± 0.173 | 38 ± 4 |  |
| Cc1c(C)[n+](OCc2ccccc2)cn1Cc1cccc(F)c1.[Br-] [Compound 8a, 3-Benzyloxy-1-(3-fluorobenzyl)-4,5-dimethylimidazolium bromide] | > 206 | 206 ± 8.61 | 20 ± 3.46 | 361.7 ± 2.89 | 124 to 126 | 327 ± 7.64 | 257 ± 10.4 | > 327 | > 250 | > 2e-05 | > 257 | 7.5 ± 0.5 | 250 ± 10 |  |
| Cc1c(C)[n+](OCc2ccccc2)cn1Cc1cccc(OC(F)(F)F)c1.[Br-] [Compound 8b, 3-Benzyloxy-4,5-dimethyl-1-[3-(trifluoromethoxy)benzyl]imidazolium bromide] | > 24.3 | 24.3 ± 2.08 | 7.33 ± 0.76 | 163 ± 6.43 | 108 to 110 | 257 ± 6.77 | 90.7 ± 4.16 | > 257 | > 143 | > 7.33e-06 | > 90.7 | 5.5 ± 0.5 | 143 ± 2.89 |  |
| FC(F)(F)c1cccc(C[n+]2cn(Cc3ccccc3)c(-c3ccccc3)c2-c2ccccc2)c1.[Br-] [Compound 9a, 1-Benzyl-4,5-diphenyl-3-[3-(trifluoromethyl)benzyl]imidazolium bromide] | > 0.09 |  | 0.019 ± 0.001 | 6.9 ± 0.361 | 216 to 217 | 0.04 to 0.347 | 3.75 ± 0.087 | > 0.04 | > 0.347 | > 1.9e-08 | > 3.75 | 0.035 ± 0.005 |  | CC50 (LLC-MK2 cells): 40 ± 2 nM |
| COc1cccc(Cn2c(-c3ccccc3)c(-c3ccccc3)n(Cc3ccccc3)c2=S)c1 [Compound 10d] |  |  | < 400 |  |  |  |  |  |  |  |  |  |  | viability at 48 h, 10 µM [13]: 96.8%; CC50 at 48 h ([3]; Table S2, range 0.1-1000 µM, read-out: Cell line (CC50 M) HeLa): 318 ± 47.5 µM; viability at 48 h, 10 µM [14]: 91.5%; viability at 10 µM [15]: 1.9%; viability at 48 h, 10 µM [16]: 53.6%; viability at 48 h, 10 µM [17]: 95.8%; IC50 ([9]; Table S4, range 0.1-1000 µM, AdV5, read-out: IC50 (M) AdV5): > 0.000318 M; viability at 48 h, 10 µM [18]: 74%; viability at 10 µM [19]: 10.6%; viability at 10 µM [20]: 14.6%; viability at 10 µM [21]: 68%; viability at 10 µM [22]: 8.5% |
